Experimental data published in the supplement of paper PMC10307832.

Assays:
Experiment in all cases: relative viability (nuclei count vs DMSO), 5 days (fraction); higher = more cells survive
A-427 = tested on: A-427
Procedure, shortened: (§1)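 Values are medians from duplicate plates. Each reflects relative viability, defined as the nuclei count of treated wells over that of vehicle wells. Lung cancer cell lines in 1536-well plates were pin-tool dosed one day after seeding with one drug alone or with a fixed anchor-drug dose plus five library-drug doses (not always all listed) in √10 steps, then fixed, stained and imaged at 4× after 5 days.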

COR-L 105 = tested on: COR-L 105
Procedure, shortened: as §1

ChaGo-K-1 = tested on: ChaGo-K-1
Procedure, shortened: as §1

EKVX = tested on: EKVX
Procedure, shortened: as §1

EMC-BAC-2 = tested on: EMC-BAC-2
Procedure, shortened: as §1

EPLC-272H = tested on: EPLC-272H
Procedure, shortened: as §1

HARA = tested on: HARA
Procedure, shortened: as §1

HCC-44 = tested on: HCC-44
Procedure, shortened: as §1

LU99A = tested on: LU99A
Procedure, shortened: as §1

NCI-H1650 = tested on: NCI-H1650
Procedure, shortened: as §1

NCI-H1734 = tested on: NCI-H1734
Procedure, shortened: as §1

NCI-H1755 = tested on: NCI-H1755
Procedure, shortened: as §1

NCI-H1792 = tested on: NCI-H1792
Procedure, shortened: as §1

NCI-H1993 = tested on: NCI-H1993
Procedure, shortened: as §1

NCI-H2405 = tested on: NCI-H2405
Procedure, shortened: as §1

NCI-H460 = tested on: NCI-H460
Procedure, shortened: as §1

NCI-H596 = tested on: NCI-H596
Procedure, shortened: as §1

NCI-H647 = tested on: NCI-H647
Procedure, shortened: as §1

RERF-LC-KJ = tested on: RERF-LC-KJ
Procedure, shortened: as §1

## Cc1csc(=NC2CCCCC2)n1/N=C/c1ccc(O)c(O)c1O [MIM1] + CC(C)C[C@H](NC(=O)[C@H](Cc1ccccc1)NC(=O)c1cnccn1)B(O)O [Bortezomib] (partner 0.002 µM)
A-427; first compound 0.2 µM
  relative viability: 0.975
A-427; first compound 0.6325 µM
  relative viability: 0.865
A-427; first compound 2 µM
  relative viability: 0.972
A-427; first compound 6.325 µM
  relative viability: 0.847
A-427; first compound 20 µM
  relative viability: 0.234
COR-L 105; first compound 0.2 µM
  relative viability: 0.789
COR-L 105; first compound 0.6325 µM
  relative viability: 0.82
COR-L 105; first compound 2 µM
  relative viability: 0.719
COR-L 105; first compound 6.325 µM
  relative viability: 0.54
COR-L 105; first compound 20 µM
  relative viability: 0.278
ChaGo-K-1; first compound 0.2 µM
  relative viability: 1.03
ChaGo-K-1; first compound 0.6325 µM
  relative viability: 0.972
ChaGo-K-1; first compound 2 µM
  relative viability: 1.06
ChaGo-K-1; first compound 6.325 µM
  relative viability: 0.729
ChaGo-K-1; first compound 20 µM
  relative viability: 0.29
EKVX; first compound 0.2 µM
  relative viability: 1.03
EKVX; first compound 0.6325 µM
  relative viability: 1.16
EKVX; first compound 2 µM
  relative viability: 0.991
EKVX; first compound 6.325 µM
  relative viability: 0.601
EKVX; first compound 20 µM
  relative viability: 0.33
EMC-BAC-2; first compound 0.2 µM
  relative viability: 1.08
EMC-BAC-2; first compound 0.6325 µM
  relative viability: 0.822
EMC-BAC-2; first compound 2 µM
  relative viability: 1.08
EMC-BAC-2; first compound 6.325 µM
  relative viability: 0.996
EMC-BAC-2; first compound 20 µM
  relative viability: 0.259
EPLC-272H; first compound 0.2 µM
  relative viability: 0.805
EPLC-272H; first compound 0.6325 µM
  relative viability: 0.796
EPLC-272H; first compound 2 µM
  relative viability: 0.588
EPLC-272H; first compound 6.325 µM
  relative viability: 0.732
EPLC-272H; first compound 20 µM
  relative viability: 0.483
HARA; first compound 0.2 µM
  relative viability: 1.09
HARA; first compound 0.6325 µM
  relative viability: 1.1
HARA; first compound 2 µM
  relative viability: 1.2
HARA; first compound 6.325 µM
  relative viability: 1.08
HARA; first compound 20 µM
  relative viability: 0.127
HCC-44; first compound 0.2 µM
  relative viability: 0.879
HCC-44; first compound 0.6325 µM
  relative viability: 0.816
HCC-44; first compound 2 µM
  relative viability: 0.84
HCC-44; first compound 6.325 µM
  relative viability: 0.446
HCC-44; first compound 20 µM
  relative viability: 0.141
LU99A; first compound 0.2 µM
  relative viability: 1.08
LU99A; first compound 0.6325 µM
  relative viability: 1.08
LU99A; first compound 2 µM
  relative viability: 1.1
LU99A; first compound 6.325 µM
  relative viability: 0.987
LU99A; first compound 20 µM
  relative viability: 0.341
NCI-H1650; first compound 0.2 µM
  relative viability: 0.263
NCI-H1650; first compound 0.6325 µM
  relative viability: 0.204
NCI-H1650; first compound 2 µM
  relative viability: 0.188
NCI-H1650; first compound 6.325 µM
  relative viability: 0.212
NCI-H1650; first compound 20 µM
  relative viability: 0.165
NCI-H1734; first compound 0.2 µM
  relative viability: 1.12
NCI-H1734; first compound 0.6325 µM
  relative viability: 0.799
NCI-H1734; first compound 2 µM
  relative viability: 0.868
NCI-H1734; first compound 6.325 µM
  relative viability: 0.404
NCI-H1734; first compound 20 µM
  relative viability: 0.159
NCI-H1755; first compound 0.2 µM
  relative viability: 0.954
NCI-H1755; first compound 0.6325 µM
  relative viability: 0.949
NCI-H1755; first compound 2 µM
  relative viability: 0.893
NCI-H1755; first compound 6.325 µM
  relative viability: 0.776
NCI-H1755; first compound 20 µM
  relative viability: 0.377
NCI-H1792; first compound 0.2 µM
  relative viability: 0.852
NCI-H1792; first compound 0.6325 µM
  relative viability: 0.921
NCI-H1792; first compound 2 µM
  relative viability: 0.922
NCI-H1792; first compound 6.325 µM
  relative viability: 0.452
NCI-H1792; first compound 20 µM
  relative viability: 0.851
NCI-H1993; first compound 0.2 µM
  relative viability: 1.18
NCI-H1993; first compound 0.6325 µM
  relative viability: 1.03
NCI-H1993; first compound 2 µM
  relative viability: 1.11
NCI-H1993; first compound 6.325 µM
  relative viability: 0.774
NCI-H1993; first compound 20 µM
  relative viability: 0.473
NCI-H2405; first compound 0.2 µM
  relative viability: 0.959
NCI-H2405; first compound 0.6325 µM
  relative viability: 1.01
NCI-H2405; first compound 2 µM
  relative viability: 0.961
NCI-H2405; first compound 6.325 µM
  relative viability: 0.788
NCI-H2405; first compound 20 µM
  relative viability: 0.358
NCI-H460; first compound 0.2 µM
  relative viability: 1.12
NCI-H460; first compound 0.6325 µM
  relative viability: 1.26
NCI-H460; first compound 2 µM
  relative viability: 0.604
NCI-H460; first compound 6.325 µM
  relative viability: 0.467
NCI-H460; first compound 20 µM
  relative viability: 0.0328
NCI-H596; first compound 0.6325 µM
  relative viability: 1.16
NCI-H596; first compound 2 µM
  relative viability: 0.988
NCI-H596; first compound 6.325 µM
  relative viability: 0.999
NCI-H596; first compound 20 µM
  relative viability: 0.951
NCI-H647; first compound 0.2 µM
  relative viability: 1.05
NCI-H647; first compound 0.6325 µM
  relative viability: 0.878
NCI-H647; first compound 2 µM
  relative viability: 0.98
NCI-H647; first compound 6.325 µM
  relative viability: 0.769
NCI-H647; first compound 20 µM
  relative viability: 0.237
RERF-LC-KJ; first compound 0.2 µM
  relative viability: 1.08
RERF-LC-KJ; first compound 0.6325 µM
  relative viability: 1.29
RERF-LC-KJ; first compound 2 µM
  relative viability: 0.852
RERF-LC-KJ; first compound 6.325 µM
  relative viability: 0.601
RERF-LC-KJ; first compound 20 µM
  relative viability: 0.264
